Measured values published in patent US8263624B2, “Aryl-substituted heterocycles, and use thereof” (Bayer Intellectual Property GmbH, priority 2006, dated 2012).
Structures can show the parent of a compound that is named as a salt.

Target: T1, human factor Xa (Homo sapiens, UniProt P00742)
T1 construct: factor Xa, which is formed from the proenzyme factor X
Experiment: Determination of the factor Xa inhibition (fluorogenic substrate Boc-Ile-Glu-Gly-Arg-AMC)
Assay type: biochemical
Conditions: human factor Xa 1.3 nmol/l, 15 min preincubation at 22° C., substrate 5 μmol/l, pH 7.4
Method: • a.1) Determination of the Factor Xa Inhibition
In order to determine the factor Xa inhibition of the substances listed above, a biochemical test system is set up, in which the conversion of a factor Xa substrate is used to determine the enzymatic activity of human factor Xa. Here Factor Xa cleaves aminomethylcoumarin, whose fluorescence is measured, from the peptidic substrate. The determinations are carried out in microtitre plates.
Substances to be tested, in various concentrations, are dissolved in dimethyl sulphoxide and incubated for 15 min at 22° C. with human factor Xa (1.3 nmol/l dissolved in 50 mmol/l of Tris buffer [C,C,C-tris(hydroxymethyl)aminomethane], 100 mmol/l NaCl, 0.1% BSA [bovine serum albumin], pH 7.4). The substrate (5 μmol/l of Boc-Ile-Glu-Gly-Arg-AMC from Bachem) is then added. After an incubation time of 30 min, the sample is excited at a wavelength of 360 nm, and the emission at 460 nm is measured. The measured emissions of the test batches with test substance are compared to the control batches without test substance (only dimethyl sulphoxide instead of test substance in dimethyl sulphoxide), and IC50 values are calculated from the concentration/activity relationships.

T1 sequence (P00742 235-488 limits assumed): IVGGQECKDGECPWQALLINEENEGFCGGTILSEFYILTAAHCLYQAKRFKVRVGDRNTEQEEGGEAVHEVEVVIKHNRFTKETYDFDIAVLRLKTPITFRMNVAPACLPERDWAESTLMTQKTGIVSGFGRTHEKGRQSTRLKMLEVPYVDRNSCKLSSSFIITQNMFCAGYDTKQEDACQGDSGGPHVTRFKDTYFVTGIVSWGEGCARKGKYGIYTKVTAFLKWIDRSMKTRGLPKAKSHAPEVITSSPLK
T1 sequence (P00742 41-179 partner limits assumed): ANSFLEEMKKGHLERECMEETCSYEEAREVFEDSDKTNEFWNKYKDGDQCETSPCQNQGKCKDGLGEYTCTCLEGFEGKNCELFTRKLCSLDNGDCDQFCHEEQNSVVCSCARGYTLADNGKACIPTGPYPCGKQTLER

IC50	Structure (SMILES)
0.7 nM	O=C(NCc1cn(-c2ccc(N3CCOCC3=O)cc2)nc1-c1ccccc1)c1ccc(Cl)s1 [Example 1, 5-Chloro-N-({1-[4-(3-oxomorpholin-4-yl)phenyl]-3-phenyl-1H-pyrazol-4-yl}methyl)thiophene-2-carboxamide]
0.7 nM	Cc1cc(-n2cc(CNC(=O)c3ccc(Cl)s3)c(-c3ccccc3)n2)ccc1N1CCOCC1=O [Example 2, 5-Chloro-N-({1-[3-methyl-4-(3-oxomorpholin-4-yl)phenyl]-3-phenyl-1H-pyrazol-4-yl}methyl)-thiophene-2-carboxamide]
0.8 nM	O=C(NCc1cn(-c2ccc(N3CCOCC3=O)cc2)nc1-c1cccnc1)c1ccc(Cl)s1 [Example 3, 5-Chloro-N-({1-[4-(3-oxomorpholin-4-yl)phenyl]-3-pyridin-3-yl-1H-pyrazol-4-yl}methyl)thiophene-2-carboxamide hydrochloride]
